Experimental data reported in US11459338B2, “Heterocyclic compounds as PRMT5 inhibitors” (JUBILANT EPISCRIBE LLC, priority 2018, dated 2022).
pIC50: −log10 of the molar value.

Legend:
PRMT5/MEP50 = target: T1, PRMT5/MEP50 (Homo sapiens, UniProt O14744); assay: PRMT5/MEP50 enzyme assay on peptide substrates (3H-SAM Flashplate); type: biochemical; settings: PRMT5/MEP50 10 nM, H4 1-15aa peptide 100 nM, 3H-SAM 1 μM
T1 construct: Full-length human PRMT5 (NP_006100)
Description: General materials like S-adenocylmethionine (SAM), S-adenosylhomocysteine (SAH), Tris-HCl, DTT, […] (BSA) and Tween-20 were purchased from Sigma-Aldrich. 3H-SAM and 384-well streptavidin Flashplates were purchased from Perkin Elmer. Substrates that were used were Peptide representative of human Histone 4 residues 1-15 which was purchased from Rockland antibodies and assays.
PRMT5/MEP50 Enzyme assay on Peptide Substrates.
The assays were all performed in a buffer consisting of 50 mMTris-HCl, pH 8, 1 mM DTT, 0.01% BSA, 0.01% Tween-20, prepared on the day of use. Test compounds were diluted 3-fold in assay buffer (final DMSO concentration of 1%) and added into a 384-well OptiPlate (PerkinElmer, #6007290). A cocktail (10 μL) of PRMT5/MEP50 enzyme and the peptide was added to the wells. The compounds were allowed to incubate with PRMT5/MEP50 for 30 min at room temperature, then 5 μL of ^3H-SAM was added to initiate the reaction. The final concentrations of the components were as follows: PRMT5/MEP50-10 nM, H4, 1-15aa peptide-100 nM, ^3H-SAM-1 μM. The assays were stopped by the addition of 1 mM SAH. 25 μL of the reaction from the 384-well OptiPlate was then transferred to a 384-well Flashplate and the biotinylated peptides were allowed to bind to the streptavidin surface for at least 1 h, before being washed twice with 50 mMTris-HCl, pH 8, 0.1% Tween-20. The plates were then read in a PerkinElmer Topcount plate reader to measure the quantity of ^3H-labeled peptide bound to the Flashplate surface measured as disintegrations per minute (dpm), also referred to as counts per minute (cpm).
The IC50 values were calculated using a 4-parameter variable slope fit algorithm (cpm—counts per minute, cmpd—signal in assay well, and cpmmax and cpmmin mare the respective minimum and maximum signal controls).

Z-138 cells = assay: Z-138 long term proliferation assay (Cell Titer Glo); type: cell-based; settings: Homo sapiens, 192 h; Z-138 cells, cell viability, day 8; read-out: PRMT5 Z138 GI50 Day 8 μM
Description: A compound source plate was prepared by performing ten-point 3-fold dilution in DMSO, such that the final top concentration of the compound was 10 μM, and DMSO was 0.3%. The total volume of compounds added was 20 μL. The cells were incubated for 96 h at 37° C., 5% CO2. […] The cells were re-treated with the compounds and incubated for an additional four days. Cell viability was measured on both day 4 and day 8, by adding 25 μL of Cell Titer Glo reagent to an equal volume of cell suspension. Luminescence was read on a PerkinElmer Victor3 multiplate reader. The concentration of compound inhibiting cell viability by 50% was determined using a 4-parameter, variable slope fit of the normalized dose response curves.

T1 sequence (O14744 whole entry): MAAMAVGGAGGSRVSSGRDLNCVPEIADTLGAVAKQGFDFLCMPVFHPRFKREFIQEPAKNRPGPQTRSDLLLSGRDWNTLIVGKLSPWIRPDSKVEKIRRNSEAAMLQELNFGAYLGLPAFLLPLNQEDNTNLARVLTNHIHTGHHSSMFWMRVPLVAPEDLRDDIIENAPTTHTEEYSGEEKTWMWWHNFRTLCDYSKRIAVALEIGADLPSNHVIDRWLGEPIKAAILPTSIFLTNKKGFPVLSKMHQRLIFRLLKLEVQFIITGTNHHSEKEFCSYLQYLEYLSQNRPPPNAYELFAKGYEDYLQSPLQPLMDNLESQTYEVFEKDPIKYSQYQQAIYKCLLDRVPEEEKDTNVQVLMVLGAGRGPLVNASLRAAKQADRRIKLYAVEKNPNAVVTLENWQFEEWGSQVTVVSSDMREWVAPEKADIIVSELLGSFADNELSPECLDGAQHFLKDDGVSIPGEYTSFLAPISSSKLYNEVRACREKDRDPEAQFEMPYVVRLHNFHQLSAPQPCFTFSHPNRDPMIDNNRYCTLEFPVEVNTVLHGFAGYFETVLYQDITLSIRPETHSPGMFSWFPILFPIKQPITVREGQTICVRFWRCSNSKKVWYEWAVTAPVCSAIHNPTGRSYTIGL
T1 sequence (Q9BQA1 whole entry partner): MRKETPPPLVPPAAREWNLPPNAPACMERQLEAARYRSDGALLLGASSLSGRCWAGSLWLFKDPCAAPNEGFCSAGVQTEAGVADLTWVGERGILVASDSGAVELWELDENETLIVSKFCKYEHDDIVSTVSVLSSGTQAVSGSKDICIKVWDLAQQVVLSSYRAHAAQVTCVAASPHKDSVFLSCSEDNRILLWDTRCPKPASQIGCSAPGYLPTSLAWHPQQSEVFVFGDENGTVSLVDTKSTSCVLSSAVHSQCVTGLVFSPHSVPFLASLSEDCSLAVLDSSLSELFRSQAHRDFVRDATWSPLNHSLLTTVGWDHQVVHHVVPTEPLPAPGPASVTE

SMILES | pIC50 (PRMT5/MEP50) | GI50 (Z-138 cells) [µM]
Cn1cc(-c2ccc3nc(C(=O)NC[C@H](O)CN4CCc5ccccc5C4)cn3n2)cn1 [Example 46, (S)—N-(3-(3,4-dihydroisoquinolin-2(1H)-yl)-2-hydroxypropyl)-6-(1-methyl-1H-pyrazol-4-yl)imidazo[1,2-b]pyridazine-2-carboxamide] | 6.00 to 8.00 | 0.01 to 1
Cc1c(C(=O)NC[C@H](O)CN2CCc3ccccc3C2)nc2ccc(C(F)(F)F)nn12 [Example 54, (S)—N-(3-(3,4-dihydroisoquinolin-2(1H)-yl)-2-hydroxypropyl)-3-methyl-6-(trifluoromethyl)imidazo[1,2-b]pyridazine-2-carboxamide] | 5.30 to 6.00 | 1 to 5
Cn1ccc(-c2ccn3nc(C(=O)NC[C@H](O)CN4CCc5ccccc5C4)cc3n2)cc1=O [Example 63, (S)—N-(3-(3,4-dihydroisoquinolin-2(1H)-yl)-2-hydroxypropyl)-5-(1-methyl-2-oxo-1,2-dihydropyridin-4-yl)pyrazolo[1,5-a]pyrimidine-2-carboxamide] | 6.00 to 8.00 | 1 to 5
Cc1ncc(-c2ccc3nc(C(=O)NC[C@H](O)CN4CCc5ccccc5C4)cn3c2)cn1 [Example 28, (S)—N-(3-(3,4-dihydroisoquinolin-2(1H)-yl)-2-hydroxypropyl)-6-(2-methylpyrimidin-5-yl)imidazo[1,2-a]pyridine-2-carboxamide] | 6.00 to 8.00 | 0.01 to 1
O=C(NC[C@H](O)CN1CCc2ccccc2C1)c1cn2nc(C(F)(F)F)ccc2n1 [Example 50, (S)—N-(3-(3,4-dihydroisoquinolin-2(1H)-yl)-2-hydroxypropyl)-6-(trifluoromethyl)imidazo[1,2-b]pyridazine-2-carboxamide] | 5.30 to 6.00 | 1 to 5
Cn1cc(-c2cn3cc(C(=O)NC[C@H](O)CN4CCc5ccccc5C4)nc3cn2)ccc1=O [Example 51, (S)—N-(3-(3,4-dihydroisoquinolin-2(1H)-yl)-2-hydroxypropyl)-6-(1-methyl-6-oxo-1,6-dihydropyridin-3-yl)imidazo[1,2-a]pyrazine-2-carboxamide] | 6.00 to 8.00 | 0.01 to 1
O=C(NC[C@H](O)CN1CCc2ccccc2C1)c1cn2cc(N3CCC(F)C3)ccc2n1 (stereo partly drawn) [Example 70, N—((S)-3-(3,4-dihydroisoquinolin-2(1H)-yl)-2-hydroxypropyl)-6-(3-fluoropyrrolidin-1-yl)imidazo[1,2-a]pyridine-2-carboxamide] | 6.00 to 8.00 | 1 to 5
O=C(NC[C@H](O)[C@@H](O)CN1CCc2ccccc2C1)c1cn2cc(-c3cnn([C@@H]4CCOC4)c3)ccc2n1 [Example 79, N-((2S,3S)-4-(3,4-dihydroisoquinolin-2(1H)-yl)-2,3-dihydroxybutyl)-6-(1-((R)-tetrahydrofuran-3-yl)-1H-pyrazol-4-yl)imidazo[1,2-a]pyridine-2-carboxamide] | 6.00 to 8.00 | 0.01 to 1
Cc1ncc(-c2ccc3nc(C(=O)NC[C@H](O)CN4CCc5ccccc5C4)cn3c2)s1 [Example 31, (S)—N-(3-(3,4-dihydroisoquinolin-2(1H)-yl)-2-hydroxypropyl)-6-(2-methylthiazol-5-yl)imidazo[1,2-a]pyridine-2-carboxamide] | 6.00 to 8.00 | 0.01 to 1
N#Cc1ccc(-c2cn3cc(C(=O)NC[C@H](O)CN4CCc5ccccc5C4)nc3cn2)cc1 [Example 74, (S)-6-(4-cyanophenyl)-N-(3-(3,4-dihydroisoquinolin-2(1H)-yl)-2-hydroxypropyl)imidazo[1,2-a]pyrazine-2-carboxamide] | 6.00 to 8.00 | 0.01 to 1
Cc1nc(-c2ccc3nc(C(=O)NC[C@H](O)CN4CCc5ccccc5C4)cn3c2)sc1C [Example 32, (S)—N-(3-(3,4-dihydroisoquinolin-2(1H)-yl)-2-hydroxypropyl)-6-(4,5-dimethylthiazol-2-yl)imidazo[1,2-a]pyridine-2-carboxamide] | 6.00 to 8.00 | 0.01 to 1
Cc1cn2cc(C(=O)NC[C@H](O)CN3CCc4ccccc4C3)nc2cn1 [Example 57] | 5.30 to 6.00 | 1 to 5
Cc1nc(-c2ccc3nc(C(=O)NC[C@H](O)[C@@H](O)CN4CCc5ccccc5C4)cn3c2)no1 [Example 78, N-((2S,3S)-4-(3,4-dihydroisoquinolin-2(1H)-yl)-2,3-dihydroxybutyl)-6-(5-methyl-1,2,4-oxadiazol-3-yl)imidazo[1,2-a]pyridine-2-carboxamide] | 6.00 to 8.00 | 0.01 to 1
Cc1ccc(-c2ccc3nc(C(=O)NC[C@H](O)CN4CCc5ccccc5C4)cn3c2)cn1 [Example 29, (S)—N-(3-(3,4-dihydroisoquinolin-2(1H)-yl)-2-hydroxypropyl)-6-(6-methylpyridin-3-yl)imidazo[1,2-a]pyridine-2-carboxamide] | 6.00 to 8.00 | 0.01 to 1

More lines, main results first:

pIC50 (PRMT5/MEP50) | SMILES | GI50 (Z-138 cells) [µM]
6.00 to 8.00 | Cn1cc([C@H]2CCc3nc(C(=O)NC[C@H](O)CN4CCc5ccccc5C4)cn3C2)cn1 [Example 120A, (R)—N—((S)-3-(3,4-dihydroisoquinolin-2(1H)-yl)-2-hydroxypropyl)-6-(1-methyl-1H-pyrazol-4-yl)-5,6,7,8-tetrahydroimidazo[1,2-a]pyridine-2-carboxamide] | 0.01 to 1
6.00 to 8.00 | Cn1cc([C@@H]2CCc3nc(C(=O)NC[C@H](O)CN4CCc5ccccc5C4)cn3C2)cn1 [Example 120B, (S)—N—((S)-3-(3,4-dihydroisoquinolin-2(1H)-yl)-2-hydroxypropyl)-6-(1-methyl-1H-pyrazol-4-yl)-5,6,7,8-tetrahydroimidazo[1,2-a]pyridine-2-carboxamide] | 1 to 5
5.30 to 6.00 | CN(C[C@H](O)CN1CCc2ccccc2C1)C(=O)c1cc2nc(C(F)(F)F)ccn2n1 [Example 90, (R)—N-(3-(3,4-dihydroisoquinolin-2(1H)-yl)-2-hydroxypropyl)-N-methyl-5-(trifluoromethyl)pyrazolo[1,5-a]pyrimidine-2-carboxamide] | > 5
6.00 to 8.00 | Cn1cc(-c2ccc3nc(C(=O)NC[C@H](O)[C@@H](O)CN4CCc5ccccc5C4)cn3c2)cn1 [Example 81, N-((2S,3S)-4-(3,4-dihydroisoquinolin-2(1H)-yl)-2,3-dihydroxybutyl)-6-(1-methyl-1H-pyrazol-4-yl)imidazo[1,2-a]pyridine-2-carboxamide] | 0.01 to 1
6.00 to 8.00 | CC(=O)N1CCC(C2CCc3nc(C(=O)NC[C@H](O)CN4CCc5ccccc5C4)cn3C2)CC1 (single isomer, unassigned) [Example 118A] | 0.01 to 1
6.00 to 8.00 | CN(C[C@H](O)CN1CCc2ccccc2C1)C(=O)c1cn2cc(C(F)(F)F)ccc2n1 [Example 88, (R)—N-(3-(3,4-dihydroisoquinolin-2(1H)-yl)-2-hydroxypropyl)-N-methyl-6-(trifluoromethyl)imidazo[1,2-a]pyridine-2-carboxamide] | 0.01 to 1
6.00 to 8.00 | CN(C[C@H](O)CN1CCc2ccccc2C1)C(=O)c1cn2cc(-c3cnn(C)c3)ncc2n1 [Example 92, (R)—N-(3-(3,4-dihydroisoquinolin-2(1H)-yl)-2-hydroxypropyl)-N-methyl-6-(1-methyl-1H-pyrazol-4-yl)imidazo[1,2-a]pyrazine-2-carboxamide] | 1 to 5
5.30 to 6.00 | Cn1cc(-c2ccc3nc(C(=O)NC[C@H](O)CN4CCc5cc(F)ccc5C4)cn3c2)cn1 [Example 82, (S)—N-(3-(6-fluoro-3,4-dihydroisoquinolin-2(1H)-yl)-2-hydroxypropyl)-6-(1-methyl-1H-pyrazol-4-yl)imidazo[1,2-a]pyridine-2-carboxamide] | 1 to 5
5.30 to 6.00 | CN(C[C@H](O)CN1CCc2ccccc2C1)C(=O)c1cn2cc(-c3ccc(=O)n(C)c3)ncc2n1 [Example 94, (R)—N-(3-(3,4-dihydroisoquinolin-2(1H)-yl)-2-hydroxypropyl)-N-methyl-6-(1-methyl-6-oxo-1,6-dihydropyridin-3-yl)imidazo[1,2-a]pyrazine-2-carboxamide] | 1 to 5
6.00 to 8.00 | CN(C[C@H](O)CN1CCc2ccccc2C1)C(=O)c1cn2cc(C(F)(F)F)ncc2n1 [Example 89, (R)—N-(3-(3,4-dihydroisoquinolin-2(1H)-yl)-2-hydroxypropyl)-N-methyl-6-(trifluoromethyl)imidazo[1,2-a]pyrazine-2-carboxamide] | 0.01 to 1
